Results published in patent US10307407B2, “9H-pyrimido [4,5-B] indoles as BET bromodomain inhibitors” (THE REGENTS OF THE UNIVERSITY OF MICHIGAN, priority 2015, dated 2019).

What was measured:
recombinant BRD4 BD1 = target: T1, recombinant BRD4 BD1 (Homo sapiens, UniProt O60885); assay: Competitive fluorescence-polarization (FP) binding assay, BRD4 BD1; conditions: FAM labeled probe 1.5 nM, protein 10 nM, pH 6.5
T1 construct: recombinant BRD4 BD1 and BRD4 BD2 proteins
Protocol: (§1) Fluorescence Polarization (FP) competitive binding studies were carried out using a FAM labeled fluorescent probe (ZBA248 or BRD-1F) to determine binding affinities of representative Compounds of the Disclosure for recombinant BRD4 BD1 and BRD4 BD2 proteins. For example, equilibrium dissociation constants (Kd) values of ZBA248 to these six proteins were determined from protein saturation experiments by monitoring the total fluorescence polarization of mixtures composed with the fluorescent probe at a fixed concentration and proteins with increasing concentrations up to full saturation. Serial dilutions of testing protein were mixed with ZBA248 to a final volume of 200 μl in the assay buffer. In order to achieve large dynamic rages, particularly for BD1 bromodomains, 100 mM phosphate buffer (pH=6.5, 0.01% Triton X-100 (Sigma, 282103) being added right before assays) was used as the assay buffer. Final ZBA248 concentration was 1.5 nM for all proteins. Plates were incubated at room temperature for 30 minutes with gentle shaking to assure equilibrium. FP values in millipolarization units (mP) were measured using the Infinite M-1000 plate reader (Tecan U.S., Research Triangle Park, N.C.) in Microfluor 1 96-well, black, round-bottom plates (Thermo Scientific, Waltham, Mass.) at an excitation wavelength of 485 nm and an emission wavelength of 530 nm. Kd values of ZBA248 were calculated by fitting the sigmoidal dose-dependent FP increases as a function of protein concentrations using Graphpad Prism 6.0 software (Graphpad Software, San Diego, Calif.).
(§2) The IC50 and Ki values of representative Compounds of the Disclosure were determined in a competitive binding experiment as described above. Mixtures of 10 μl of the tested compounds in assay buffer with 40% Ethylene Glycol and 190 μl of preincubated protein/probe complex solution in the assay buffer (100 mM potassium phosphate, pH 6.5, 0.01% Triton X-100) were added into assay plates which were incubated at room temperature for 30 minutes with gentle shaking. Final concentrations of proteins were 10 and 6 nM in assays for BD1 and BD2 of BRD4, respectively. Final probe concentration is 1.5 nM in all assays. Negative controls containing protein/probe complex only (equivalent to 0% inhibition), and positive controls containing only free probes (equivalent to 100% inhibition), were included in each assay plate. FP values were measured as described above. IC50 values were determined by nonlinear regression fitting of the competition curves. Instead of being calculated from IC50 values as described before, Ki values of competitive inhibitors were obtained directly by nonlinear regression fitting as well, based upon the Kd values of the probe to different proteins, and concentrations of the proteins and probes in the competitive assays (Wang, FEBS Lett. 360; 111 (1995); Zhang et al., Analytical Biochemistry, 331; 138 (2004)).
(§3) Binding affinities of representative Compounds of the Disclosure to BRD4 BD1 and BRD4 BD2 proteins in competitive, fluorescence-polarization assays are presented in Table 2.

recombinant BRD4 BD2 = target: T2, recombinant BRD4 BD2 (Homo sapiens, UniProt O60885); assay: Competitive fluorescence-polarization (FP) binding assay, BRD4 BD2; conditions: FAM labeled probe 1.5 nM, protein 6 nM, pH 6.5
T2 construct: recombinant BRD4 BD1 and BRD4 BD2 proteins
Protocol: as §1, §2, §3

MDA-MB-231 cells = assay: Cell growth inhibition, 4-day proliferation assay (WST), MDA-MB-231; type: cell-based; conditions: Homo sapiens, MDA-MB-231, 96 h, breast cancer cell line, 4 days treatment
Protocol: (§4) The effect of representative Compounds of the Disclosure on cell viability was determined in a 4-day proliferation assay. Cells were maintained in the appropriate culture medium with 10% FBS at 37° C. and an atmosphere of 5% CO2. All the cell lines were used within three months of thawing fresh vials.
(§5) Cells were seeded in 96-well flat bottom (Corning COSTAR, Corning, NY, cat#3595) or white opaque cell culture plates (BD Falcon, cat#353296) at a density of 3,000-10,000 cells/well in 75 μl of culture medium. Compounds were serially diluted in the appropriate medium, and 75 μl of the diluted compounds were added to the appropriate wells of the cell plate. After the addition of compounds, the cells were incubated at 37° C. in an atmosphere of 5% CO2 for 4 days. Cell viability was determined using the CellTiter-Glo® Luminescent Cell Viability Assay Kit (Promega, Madison, Wis.) for RS4-11 and MV4-11 cells and WST (2-(2-methoxy-4-nitrophenyl)-3-(4-nitrophenyl)-5-(2,4-disulfophenyl)-2H-tetrazolium, monosodium salt) Cell Counting-8 Kit (Dojindo Molecular Technologies, Inc., Rockville, Md.) for MDA-MB-231 cells according to the manufacturers' instructions.
For WST assay (MDA-MB-231 cells), WST-8 reagent was added to each well at a final concentration of 10% (v/v), and then the plates were incubated at 37° C. for 1-2 hours for color development. The absorbance was measured at 450 nm using a SPECTRAmax PLUS plate reader (Molecular Devices, Sunnyvale, Calif.). The readings were normalized to the DMSO-treated cells and the half maximal inhibitory concentration (IC50) was calculated by nonlinear regression (four parameters sigmoid fitted with variable slope, least squares fit, and no constraint) analysis using the GraphPad Prism 5 software (GraphPad Software, La Jolla, Calif.).
(§6) Cell growth inhibition of representative Compounds of the Disclosure in representative breast cancer (MDA-MB-231), acute leukemia (MV4-11), and prostate cancer cell lines (LNCaP), as determined by a WST assay, are presented in Table 3. Cells were treated with each inhibitor for 4 days.

LNCaP cells = assay: Cell growth inhibition, 4-day proliferation assay, LNCaP; type: cell-based; conditions: Homo sapiens, 96 h, prostate cancer cell line, 4 days treatment
Protocol: as §4, §5, §6

MV4-11 cells = assay: Cell growth inhibition, 4-day proliferation assay, MV4-11; type: cell-based; conditions: Homo sapiens, MV4-11, 96 h, acute leukemia cell line, 4 days treatment
Protocol: as §4, §5
For CellTiter-Glo assay (RS4-11 and MV4-11 cells), 100 μl of CellTiter-Glo® Reagent was added to each well, and then the plates were incubated at room temperature for 10-20 minutes. The luminescent signal was measured using a Tecan Infinite M1000 multimode microplate reader (Tecan, Morrisville, N.C.). The readings were normalized to the DMSO-treated cells and the IC50 was calculated by nonlinear regression (four parameters sigmoid fitted with variable slope, least squares fit, and no constraint) analysis using the GraphPad Prism 5 software.
as §6

Row | SMILES | IC50 (recombinant BRD4 BD1) [nM] | IC50 (recombinant BRD4 BD2) [nM] | IC50 (MDA-MB-231 cells) [nM] | IC50 (LNCaP cells) [nM] | IC50 (MV4-11 cells) [nM]
1 | COc1cc2c(cc1-c1c(C)noc1C)[nH]c1nc(C)nc(Nc3cc(C4CC4)nn3-c3ccc(C(=O)O)cc3)c12 [Cpd. No. 10, 4-(3-Cyclopropyl-5-((7-(3,5-dimethylisoxazol-4-yl)-6-methoxy-2-methyl-9H-pyrimido[4,5-b]indol-4-yl)amino)-1H-pyrazol-1-yl)benzoic acid] | 54 | 75.2 |  |  | 
2 | COc1cc2c(cc1-c1c(C)noc1C)[nH]c1nc(N)nc(Nc3cc(C4CC4)nn3C(C)C)c12 [Cpd. No. 2, N4-(3-cyclopropyl-1-isopropyl-1H-pyrazol-5-yl)-7-(3,5-dimethylisoxazol-4-yl)-6-methoxy-9H-pyrimido[4,5-b]indole-2,4-diamine] | 1 | 2.1 | 46 | 3 | 
3 | COc1cc2c(cc1-c1c(C)nn(C)c1C)[nH]c1ncnc(Nc3cc(C4CC4)nn3C)c12 [Cpd. No. 21, N-(3-Cyclopropyl-1-methyl-1H-pyrazol-5-yl)-6-methoxy-7-(1,3,5-trimethyl-1H-pyrazol-4-yl)-9H-pyrimido[4,5-b]indol-4-amine] | > 1000 | > 1000 |  |  | 
4 | CCn1nc2c(c1Nc1nc(N)nc3[nH]c4cc(-c5c(C)noc5C)c(OC)cc4c13)CCC2 [Cpd. No. 4, 7-(3,5-dimethylisoxazol-4-yl)-N4-(2-ethyl-2,4,5,6-tetrahydrocyclopenta[c]pyrazol-3-yl)-6-methoxy-9H-pyrimido[4,5-b]indole-2,4-diamine] | 1 | 2.5 | 6 | 20 | 
5 | COCc1nc(Nc2cc(C3CC3)nn2C(C)C)c2c(n1)[nH]c1cc(-c3c(C)noc3C)c(OC)cc12 [Cpd. No. 7, N-(3-cyclopropyl-1-isopropyl-1H-pyrazol-5-yl)-7-(3,5-dimethylisoxazol-4-yl)-6-methoxy-2-(methoxymethyl)-9H-pyrimido[4,5-b]indol-4-amine] | 3.9 | 2.1 | 6 |  | 3
6 | COc1cc2c(cc1-c1c(C)n[nH]c1C)[nH]c1ncnc(Nc3cc(C4CC4)nn3C)c12 [Cpd. No. 11, N-(3-cyclopropyl-1-methyl-1H-pyrazol-5-yl)-7-(3,5-dimethyl-1H-pyrazol-4-yl)-6-methoxy-9H-pyrimido[4,5-b]indol-4-amine] | 103 | 91.5 |  |  | 
7 | COc1cc2c(cc1-n1c(C)nnc1C)[nH]c1ncnc(Nc3cc(C4CC4)nn3C)c12 [Cpd. No. 8, N-(3-Cyclopropyl-1-methyl-1H-pyrazol-5-yl)-7-(3,5-dimethyl-4H-1,2,4-triazol-4-yl)-6-methoxy-9H-pyrimido[4,5-b]indol-4-amine] | 652 | 1300 | > 1000 |  | 
8 | COc1cc2c(cc1-n1c(C)nnc1C)[nH]c1nc(C)nc(Nc3cc(C4CC4)nn3C)c12 [Cpd. No. 15, N-(3-cyclopropyl-1-methyl-1H-pyrazol-5-yl)-7-(3,5-dimethyl-4H-1,2,4-triazol-4-yl)-6-methoxy-2-methyl-9H-pyrimido[4,5-b]indol-4-amine] | 131 | 132 | 1400 |  | 
9 | COc1cc2c(cc1-c1c(C)noc1C)[nH]c1nc(N)nc(Nc3c4c(nn3C)CCC4)c12 [Cpd. No. 3, 7-(3,5-dimethylisoxazol-4-yl)-6-methoxy-N4-(2-methyl-2,4,5,6-tetrahydrocyclopenta[c]pyrazol-3-yl)-9H-pyrimido[4,5-b]indole-2,4-diamine] | 3.5 | 1.6 | 18 | 67 | 
10 | COc1cc2c(cc1-c1c(C)noc1C)[nH]c1nc(C)nc(Nc3cc(C4CC4)nn3-c3cn(C)cn3)c12 [Cpd. No. 14, N-(3-Cyclopropyl-1-(1-methyl-1H-imidazol-4-yl)-1H-pyrazol-5-yl)-7-(3,5-dimethylisoxazol-4-yl)-6-methoxy-2-methyl-9H-pyrimido[4,5-b]indol-4-amine] | 141 | 19.7 |  |  | 
11 | COc1cc2c(cc1-c1c(C)noc1C)[nH]c1nc(C)nc(Nc3cc(C4CC4)nn3-c3cnn(C)c3)c12 [Cpd. No. 12, N-(3-Cyclopropyl-1′-methyl-1′H-[1,4′-bipyrazol]-5-yl)-7-(3,5-dimethylisoxazol-4-yl)-6-methoxy-2-methyl-9H-pyrimido[4,5-b]indol-4-amine] | 18.2 | 12.1 |  |  | 
12 | COCc1nc(Nc2c3c(nn2C(C)C)CCC3)c2c(n1)[nH]c1cc(-c3c(C)noc3C)c(OC)cc12 [Cpd. No. 6, 7-(3,5-dimethylisoxazol-4-yl)-N-(2-isopropyl-2,4,5,6-tetrahydrocyclopenta[c]pyrazol-3-yl)-6-methoxy-2-(methoxymethyl)-9H-pyrimido[4,5-b]indol-4-amine] | 3.6 | 2.9 | 6 |  | 4
13 | COc1cc2c(cc1Br)[nH]c1ncnc(Nc3cc(C4CC4)nn3C)c12 [Cpd. No. 1, 7-Bromo-N-(3-cyclopropyl-1-methyl-1H-pyrazol-5-yl)-6-methoxy-9H-pyrimido[4,5-b]indol-4-amine] | > 1000 | > 1000 |  |  | 
14 | COc1cc2c(cc1-c1c(C)noc1C)[nH]c1nc(C)nc(Nc3cc(C4CC4)n(-c4cnn(C)c4)n3)c12 [Cpd. No. 13, N-(5-Cyclopropyl-1′-methyl-1′H-[1,4′-bipyrazol]-3-yl)-7-(3,5-dimethylisoxazol-4-yl)-6-methoxy-2-methyl-9H-pyrimido[4,5-b]indol-4-amine] | 59.7 | 34.3 |  |  | 
15 | COc1cc2c(cc1-c1c(C)noc1C)[nH]c1nc(C)nc(Nc3cc(C4CC4)nn3-c3ccncc3)c12 [Cpd. No. 9, N-(3-Cyclopropyl-1-(pyridin-4-yl)-1H-pyrazol-5-yl)-7-(3,5-dimethylisoxazol-4-yl)-6-methoxy-2-methyl-9H-pyrimido[4,5-b]indol-4-amine] | 22.6 | 19 | 66 |  | 
